This is an account of results in ChEMBL document CHEMBL1134853, “Essential structural factors of acetogenins, potent inhibitors of mitochondrial complex I” (Bioorg Med Chem Lett, 2002).

For this test, the target named is T1, NADH dehydrogenase [ubiquinone] 1 alpha subcomplex subunit 11 (Bos taurus, UniProt Q8HXG6).
T1 sequence (Q8HXG6 whole entry): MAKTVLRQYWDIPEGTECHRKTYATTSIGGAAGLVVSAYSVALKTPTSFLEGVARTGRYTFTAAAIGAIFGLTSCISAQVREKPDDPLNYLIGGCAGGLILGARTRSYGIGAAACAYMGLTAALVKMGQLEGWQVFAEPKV
Description: Inhibitory activity against bovine heart mitochondrial NADH ubiquinone oxidoreductase (complex I).

By IC50 is commonly meant the concentration at which inhibition is half-maximal. Higher therefore signals weaker potency in that assay. Take `CCCCCCCCCC[C@@H](O)[C@H]1CC[C@H]([C@H]2CC[C@H]([C@H](O)CCCCCCCCCCCCC3=C[C@H](C)OC3=O)O2)O1` [ISODESAACETYLUVARICIN]: the half-inhibitory concentration (IC50) turned out to be 0.9 nM.

As for `C[C@H]1C=C(CCCCCCCCCCCC[C@@H](O)[C@H]2CC[C@H]([C@H]3CC[C@H]([C@@H](C)O)O3)O2)C(=O)O1`, the IC50 worked out at 3.1 nM.
